Results: patent publication US6337399B1, “Processes for producing 7-isoindolinequinolonecarboxylic derivatives and intermediates therefor, salts of 7-isoindolinequinolonecarboxylic acids, hydrates thereof, and composition containing the same as active ingredient” (priority 1997, dated 2002)
Read-outs that look alike come from different tables or passages of the source.

Assays:
[1] = Solubility of each salt of T-3811 in distilled water; format: physicochemical; settings: for pH: pH given beside the solubility of each salt in distilled water; for solubility at 3 h: thermodynamic from solid; for solubility at a physiologically acceptable pH: compared with the other salts of T-3811, in words
Protocol: This sample solution is exposed to ultrasonic wave irradiation 5 (SOLID STATE 1,200, Cho-onpa Kogyo) in cold water for 3 hours and then filtered through a filter with a pore size of 0.45-μm (MILLEX-HV13, MILLIPORE).

[2] = Stability against humidity; format: physicochemical; settings: in words
[3] = test system: Gram-positive and Gram-negative bacteria; settings: background statement, in words; cited from earlier work
[4] = Solubility of T-3811 in the vicinity of neutral; format: physicochemical; settings: in words
[5] = about 50 mg salt in 2 ml distilled water, ultrasonic wave irradiation in cold water 3 hours, 0.45-μm filtrate, T-3811 content by liquid chromatography, read-out: Solubility

## CC(=O)O.C[C@H]1NCc2cc(-c3ccc4c(=O)c(C(=O)O)cn(C5CC5)c4c3OC(F)F)ccc21 [Acetate, (R)-1-cyclopropyl-8-difluoromethoxy-7-(1-methyl-2,3-dihydro-1H-5-isoindolyl)-4-oxo-1,4-dihydro-3-quinolinecarboxylic acid acetate]
[1]
  pH: 4.22
[1]; water
  solubility at 3 h: 6230 µg/mL

## C[C@H]1NCc2cc(-c3ccc4c(=O)c(C(=O)O)cn(C5CC5)c4c3OC(F)F)ccc21.O=C(O)CC(O)(CC(=O)O)C(=O)O [Citrate, (R)-1-cyclopropyl-8-difluoromethoxy-7-(1-methyl-2,3-dihydro-1H-5-isoindolyl)-4-oxo-1,4-dihydro-3-quinolinecarboxylic acid citrate]
[1]
  pH: 3.90
[1]; [5]
  solubility at 3 h: 420 µg/mL

## CS(=O)(=O)O.C[C@H]1NCc2cc(-c3ccc4c(=O)c(C(=O)O)cn(C5CC5)c4c3OC(F)F)ccc21.O [T-3811 methanesulfonate hydrate, (R)-1-cyclopropyl-8-difluoromethoxy-7-(1-methyl-2,3-dihydro-1H-5-isoindolyl)-4-oxo-1,4-dihydro-3-quinolinecarboxylic acid methanesulfonate monohydrate]
[2]
  stability against humidity: good

## C[C@H]1NCc2cc(-c3ccc4c(=O)c(C(=O)O)cn(C5CC5)c4c3OC(F)F)ccc21.Cl [Hydrochloride, (R)-1-cyclopropyl-8-difluoromethoxy-7-(1-methyl-2,3-dihydro-1H-5-isoindolyl)-4-oxo-1,4-dihydro-3-quinolinecarboxylic acid hydrochloride]
[1]
  pH: 3.99
[1]; water
  solubility at 3 h: 5450 µg/mL

## C[C@H]1NCc2cc(-c3ccc4c(=O)c(C(=O)[O-])cn(C5CC5)c4c3OC(F)F)ccc21.C[C@H]1NCc2cc(-c3ccc4c(=O)c(C(=O)[O-])cn(C5CC5)c4c3OC(F)F)ccc21.[Mg+2] [Magnesium salt, magnesium salt of (R)-1-cyclopropyl-8-difluoromethoxy-7-(1-methyl-2,3-dihydro-1H-5-isoindolyl)-4-oxo-1,4-dihydro-3-quinolinecarboxylic acid]
[1]; about 50 mg salt in 2 ml distilled water, ultrasonic wave irradiation in cold water 3 hours, 0.45-μm filtrate, T-3811 content by liquid chromatography
  Solubility: 60 µg/mL
[1]
  pH: 7.58

## C[C@H](O)C(=O)O.C[C@H]1NCc2cc(-c3ccc4c(=O)c(C(=O)O)cn(C5CC5)c4c3OC(F)F)ccc21 [L-lactate, (R)-1-cyclopropyl-8-difluoromethoxy-7-(1-methyl-2,3-dihydro-1H-5-isoindolyl)-4-oxo-1,4-dihydro-3-quinolinecarboxylic acid L-lactate]
[1]
  pH: 4.40
[1]; [5]
  solubility at 3 h: 1980 µg/mL

## C[C@H]1NCc2cc(-c3ccc4c(=O)c(C(=O)O)cn(C5CC5)c4c3OC(F)F)ccc21.O=S(=O)(O)O [Sulfate, (R)-1-cyclopropyl-8-difluoromethoxy-7-(1-methyl-2,3-dihydro-1H-5-isoindolyl)-4-oxo-1,4-dihydro-3-quinolinecarboxylic acid sulfate]
[1]
  pH: 3.46
[1]; [5]
  solubility at 3 h: 1170 µg/mL

## C[C@H]1NCc2cc(-c3ccc4c(=O)c(C(=O)O)cn(C5CC5)c4c3OC(F)F)ccc21.O=P(O)(O)O [Phosphate, (R)-1-cyclopropyl-8-difluoromethoxy-7-(1-methyl-2,3-dihydro-1H-5-isoindolyl)-4-oxo-1,4-dihydro-3-quinoline-carboxylic acid phosphate]
[1]
  pH: 3.29
[1]; [5]
  solubility at 3 h: 8520 µg/mL

## CS(=O)(=O)O.C[C@H]1NCc2cc(-c3ccc4c(=O)c(C(=O)O)cn(C5CC5)c4c3OC(F)F)ccc21 [Methanesulfonate, (R)-1-cyclopropyl-8-difluoromethoxy-7-(1-methyl-2,3-dihydro-1H-5-isoindolyl)-4-oxo-1,4-dihydro-3-quinolinecarboxylic acid methanesulfonate]
[1]; listed as methanesulfonate of T-3811, methanesulfonate
  solubility at a physiologically acceptable pH: much higher
[1]; listed as t-3811 methanesulfonate, methanesulfonate
  solubility at a physiologically acceptable pH: remarkably high
[1]
  pH: 3.66
[1]; [5]
  solubility at 3 h: 16500 µg/mL

## C[C@H]1NCc2cc(-c3ccc4c(=O)c(C(=O)[O-])cn(C5CC5)c4c3OC(F)F)ccc21.[Na+] [Sodium salt, sodium (R)-1-cyclopropyl-8-difluoromethoxy-7-(1-methyl-2,3-dihydro-1H-5-isoindolyl)-4-oxo-1,4-dihydro-3-quinolinecarboxylate]
[1]
  pH: 10.11
[1]; [5]
  solubility at 3 h: 2340 µg/mL

## C[C@H]1NCc2cc(-c3ccc4c(=O)c(C(=O)O)cn(C5CC5)c4c3OC(F)F)ccc21 [Example T-3811, (R)-1-cyclopropyl-8-difluoromethoxy-7-(1-methyl-2,3-dihydro-1H-5-isoindolyl)-4-oxo-1,4-dihydro-3-quinoline-carboxylic acid]
[3]
  activity against Gram-positive and Gram-negative bacteria: excellent
[4]
  solubility in the vicinity of neutral: low
